Like-named read-outs stand apart in the source and are kept apart here.
Tests used:
[1] = target: T1, B-Raf (Homo sapiens, UniProt P15056); assay: Raf kinase biochemical assay (biotin-MEK1 phosphorylation, AlphaScreen), B-Raf; conditions: 100 μM ATP, biotin-MEK1 substrate
T1 construct: purchased Upstate Biotechnology
Experimental: (§1) Assays for biochemical and cell based activity are known in the art, for example, as described in PCT publication WO 2007/002433, the disclosure of which is hereby incorporated by reference as it relates to such assays. For example, the biochemical activity IC50 values are determined with respect to inhibition of B-Raf kinase activity, c-Raf-1 kinase activity, or B-Raf V600E kinase activity, where inhibition of phosphorylation of a peptide substrate is measured as a function of compound concentration. Compounds to be tested are diluted in dimethyl sulfoxide to a concentration of 0.1 mM. These are serially diluted 15 μL into 30 μL of dimethyl sulfoxide seven times in 96 well plates for a total of 8 dilution points, and for each dilution point 1 μL is added to a well of an assay plate. Plates are prepared such that each well in a 384 well plate contains 1 μL of compound in 10 μL volume with 0.1 ng Raf enzyme (i.e. any of B-Raf, c-Raf-1 or B-Raf V600E, Upstate Biotechnology or prepared by methods known to one of skill in the art), 50 mM HEPES, pH 7.0, 50 mM NaCl, 2 mM MgCl2, 1 mM MnCl2, 0.01% Tween-20, 1 mM DTT, and 100 nM biotin-MEK1 as substrate. The reaction is started with addition of 10 μL of 200 μM ATP (i.e. final 100 μM ATP). […] The plates are incubated for 3 hours at room temperature and read on Envision reader (Perkin Elmer). […]

[2] = target: T2, c-Raf-1 (Homo sapiens, UniProt P04049); assay: Raf kinase biochemical assay (biotin-MEK1 phosphorylation, AlphaScreen), c-Raf-1; conditions: 100 μM ATP, biotin-MEK1 substrate
T2 construct: purchased Upstate Biotechnology
T2 sequence (P04049 whole entry): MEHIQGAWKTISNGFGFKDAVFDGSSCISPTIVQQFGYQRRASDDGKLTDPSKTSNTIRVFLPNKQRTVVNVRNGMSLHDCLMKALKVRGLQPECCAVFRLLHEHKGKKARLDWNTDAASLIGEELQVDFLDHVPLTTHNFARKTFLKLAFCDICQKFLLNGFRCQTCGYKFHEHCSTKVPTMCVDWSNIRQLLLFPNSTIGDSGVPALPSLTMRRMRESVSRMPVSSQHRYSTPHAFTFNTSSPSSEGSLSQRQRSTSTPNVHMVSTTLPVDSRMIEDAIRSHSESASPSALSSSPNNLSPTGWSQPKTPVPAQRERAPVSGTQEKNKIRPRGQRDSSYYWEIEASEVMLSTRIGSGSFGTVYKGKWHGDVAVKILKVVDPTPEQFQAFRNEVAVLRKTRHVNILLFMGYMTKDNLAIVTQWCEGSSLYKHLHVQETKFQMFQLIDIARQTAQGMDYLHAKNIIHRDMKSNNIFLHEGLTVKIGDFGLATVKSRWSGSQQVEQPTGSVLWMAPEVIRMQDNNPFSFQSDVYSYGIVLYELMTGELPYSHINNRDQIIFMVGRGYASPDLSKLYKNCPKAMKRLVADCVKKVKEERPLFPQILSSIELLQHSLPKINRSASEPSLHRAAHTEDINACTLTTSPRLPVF
Experimental: as §1

[3] = target: T3, B-Raf mutant V600E (Homo sapiens, UniProt P15056, V600E); assay: Raf kinase biochemical assay (biotin-MEK1 phosphorylation, AlphaScreen), B-Raf V600E; conditions: 100 μM ATP, biotin-MEK1 substrate
T3 construct: purchased Upstate Biotechnology
Experimental: as §1

[4] = target: Kit (Homo sapiens, UniProt P10721); assay: Kinase biochemical assay, Kit
[5] = target: TrkA (Homo sapiens, UniProt P04629); assay: Kinase biochemical assay, TrkA
TrkA, sequence (P04629 33-796, species assumed): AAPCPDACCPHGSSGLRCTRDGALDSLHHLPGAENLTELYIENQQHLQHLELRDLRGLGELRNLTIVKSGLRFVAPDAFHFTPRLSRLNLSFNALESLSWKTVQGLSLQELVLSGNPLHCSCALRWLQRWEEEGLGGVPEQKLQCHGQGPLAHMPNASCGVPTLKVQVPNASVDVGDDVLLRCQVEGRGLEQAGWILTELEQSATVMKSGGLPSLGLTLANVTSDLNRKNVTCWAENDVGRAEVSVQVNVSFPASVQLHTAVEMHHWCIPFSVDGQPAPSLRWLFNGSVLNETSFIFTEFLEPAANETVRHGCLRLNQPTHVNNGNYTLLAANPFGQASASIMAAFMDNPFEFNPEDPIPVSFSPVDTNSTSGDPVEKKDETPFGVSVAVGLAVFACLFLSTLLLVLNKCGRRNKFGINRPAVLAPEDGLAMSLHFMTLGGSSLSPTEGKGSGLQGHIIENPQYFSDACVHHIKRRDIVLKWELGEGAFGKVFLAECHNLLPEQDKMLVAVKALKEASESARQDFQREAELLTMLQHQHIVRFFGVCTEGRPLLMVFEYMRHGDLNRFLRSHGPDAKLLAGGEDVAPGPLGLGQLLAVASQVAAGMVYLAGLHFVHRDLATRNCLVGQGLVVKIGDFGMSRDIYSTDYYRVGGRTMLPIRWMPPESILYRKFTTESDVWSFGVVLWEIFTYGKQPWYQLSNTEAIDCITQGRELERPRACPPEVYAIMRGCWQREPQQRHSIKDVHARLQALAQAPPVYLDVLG

[6] = target: Src (Homo sapiens, UniProt P12931); assay: Kinase biochemical assay, Src
[7] = target: Btk (Homo sapiens, UniProt Q06187); assay: Kinase biochemical assay, Btk
[8] = target: Fms (Homo sapiens, UniProt P07333); assay: Kinase biochemical assay, Fms
Fms, sequence (P07333 20-972, species assumed): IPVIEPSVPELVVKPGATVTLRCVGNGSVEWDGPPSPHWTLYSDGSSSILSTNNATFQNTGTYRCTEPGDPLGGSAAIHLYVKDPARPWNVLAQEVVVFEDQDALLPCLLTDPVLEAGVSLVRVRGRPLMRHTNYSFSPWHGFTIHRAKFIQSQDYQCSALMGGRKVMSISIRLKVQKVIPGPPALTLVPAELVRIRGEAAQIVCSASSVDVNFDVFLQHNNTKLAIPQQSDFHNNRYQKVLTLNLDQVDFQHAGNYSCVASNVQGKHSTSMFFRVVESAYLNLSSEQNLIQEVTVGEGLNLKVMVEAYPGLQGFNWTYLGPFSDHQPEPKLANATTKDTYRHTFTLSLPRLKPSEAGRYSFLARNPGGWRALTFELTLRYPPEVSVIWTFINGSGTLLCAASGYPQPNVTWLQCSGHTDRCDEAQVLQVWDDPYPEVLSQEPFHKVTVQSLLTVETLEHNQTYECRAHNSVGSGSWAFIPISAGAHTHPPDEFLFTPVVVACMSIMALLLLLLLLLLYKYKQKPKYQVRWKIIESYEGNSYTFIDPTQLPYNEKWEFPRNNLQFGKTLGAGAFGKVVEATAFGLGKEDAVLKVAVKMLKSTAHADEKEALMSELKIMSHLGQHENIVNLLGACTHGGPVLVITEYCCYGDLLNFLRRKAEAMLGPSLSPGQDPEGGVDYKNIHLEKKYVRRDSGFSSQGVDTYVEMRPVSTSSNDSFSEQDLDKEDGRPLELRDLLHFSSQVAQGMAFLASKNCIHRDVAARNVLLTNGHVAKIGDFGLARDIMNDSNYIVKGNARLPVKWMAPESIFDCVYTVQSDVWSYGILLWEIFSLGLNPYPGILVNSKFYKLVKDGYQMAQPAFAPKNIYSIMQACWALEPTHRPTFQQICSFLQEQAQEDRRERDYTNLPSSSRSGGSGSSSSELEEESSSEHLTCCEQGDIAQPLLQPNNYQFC

[9] = target: Hgk (Homo sapiens, UniProt O95819); assay: Kinase biochemical assay, Hgk
[10] = target: Kdr (Homo sapiens, UniProt P35968); assay: Kinase biochemical assay, Kdr
Kdr, sequence (P35968 20-1356, species assumed): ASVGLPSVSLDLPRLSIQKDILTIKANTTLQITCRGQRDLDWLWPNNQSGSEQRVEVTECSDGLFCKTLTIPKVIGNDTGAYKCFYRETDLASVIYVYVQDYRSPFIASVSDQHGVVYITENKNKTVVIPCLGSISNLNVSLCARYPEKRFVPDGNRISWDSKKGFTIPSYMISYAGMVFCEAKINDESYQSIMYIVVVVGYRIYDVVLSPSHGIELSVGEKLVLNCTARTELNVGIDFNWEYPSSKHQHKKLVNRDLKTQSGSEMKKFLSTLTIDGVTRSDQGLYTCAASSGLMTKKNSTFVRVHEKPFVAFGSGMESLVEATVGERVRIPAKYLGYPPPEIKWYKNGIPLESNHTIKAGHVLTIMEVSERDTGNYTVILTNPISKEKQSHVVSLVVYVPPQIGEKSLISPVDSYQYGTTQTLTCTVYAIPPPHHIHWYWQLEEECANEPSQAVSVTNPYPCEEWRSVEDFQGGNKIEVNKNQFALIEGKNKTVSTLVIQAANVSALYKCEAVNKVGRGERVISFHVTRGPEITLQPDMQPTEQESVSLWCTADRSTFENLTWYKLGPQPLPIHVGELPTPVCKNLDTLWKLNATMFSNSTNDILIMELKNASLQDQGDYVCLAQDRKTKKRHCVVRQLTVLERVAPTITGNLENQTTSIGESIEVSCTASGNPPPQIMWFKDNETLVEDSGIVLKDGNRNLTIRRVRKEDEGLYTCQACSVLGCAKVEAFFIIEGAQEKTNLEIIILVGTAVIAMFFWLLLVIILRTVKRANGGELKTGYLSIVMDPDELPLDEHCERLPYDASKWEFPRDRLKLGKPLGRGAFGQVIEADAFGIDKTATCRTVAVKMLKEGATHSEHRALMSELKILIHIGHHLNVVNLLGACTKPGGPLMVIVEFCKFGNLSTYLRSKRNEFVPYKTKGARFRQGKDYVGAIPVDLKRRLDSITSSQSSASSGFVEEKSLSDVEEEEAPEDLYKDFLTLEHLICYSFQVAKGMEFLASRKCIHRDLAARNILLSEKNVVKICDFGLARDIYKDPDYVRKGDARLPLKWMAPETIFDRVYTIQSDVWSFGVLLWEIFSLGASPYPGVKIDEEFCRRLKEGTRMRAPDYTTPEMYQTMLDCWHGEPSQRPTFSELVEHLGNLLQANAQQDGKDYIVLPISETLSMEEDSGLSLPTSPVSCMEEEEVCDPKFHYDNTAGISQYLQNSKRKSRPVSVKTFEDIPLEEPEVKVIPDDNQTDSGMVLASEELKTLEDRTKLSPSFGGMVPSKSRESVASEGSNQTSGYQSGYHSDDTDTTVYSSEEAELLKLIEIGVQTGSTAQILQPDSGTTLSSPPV

[11] = Turbidity assay of relative solubility in aqueous buffers of varying pH; assay type: physicochemical
Experimental: As an indication of relative solubility, the turbidity of compounds in aqueous solutions is assessed. To assess possible compound properties in different physiological compartments, such as stomach, intestine, and blood, a series of aqueous buffers with varying pH is used. Thus each compound is diluted into four different physiologically relevant buffers and solution turbidity is measured by spectrophotometry.
Compounds are dissolved at a concentration of 25 mM in dimethyl sulfoxide, then serially diluted 1:1 into a 96 well plate, diluting 10 times in pure dimethyl sulfoxide, with the final well of each row a dimethyl sulfoxide blank. In an assay plate, 99 μL of appropriate buffer is added to each well, and 1 μL of each sample dilution is added to the buffer, achieving a range of final total concentrations in aqueous solutions having different pH. […] Control compounds pyrene, estriol and propranolol HCl are also assessed. Plates are spun and then mixed for 1 minute, and the absorbance is read using a Tecan Safire II to read wavelengths in the visible range (490, 535, and 650 nm) at four locations per well, reflecting the degree of turbidity present. The average optical density for each wavelength in each well is graphed vs. compound concentration, and the concentration at which the curve crosses a threshold O.D. of 0.01 for each wavelength is reported as the endpoint turbidity assay result. The average of the three wavelengths is used to compare turbidity of compounds. Compounds are considered to have low solubility if the threshold concentration is <31.3 μM, moderate solubility if the threshold concentration is 31.3 μM to 250 μM, and high solubility if the threshold concentration is >250 μM.

[12] = target: T4, CYP1A2 (Homo sapiens, UniProt P05177); assay: CYP inhibition fluorescence assay, CYP1A2; assay type: in vitro ADME; conditions: substrate CEC; read-out: Cyp IC50 1A2
T4 construct: purchased BD Biosciences
T4 sequence (P05177 1-516): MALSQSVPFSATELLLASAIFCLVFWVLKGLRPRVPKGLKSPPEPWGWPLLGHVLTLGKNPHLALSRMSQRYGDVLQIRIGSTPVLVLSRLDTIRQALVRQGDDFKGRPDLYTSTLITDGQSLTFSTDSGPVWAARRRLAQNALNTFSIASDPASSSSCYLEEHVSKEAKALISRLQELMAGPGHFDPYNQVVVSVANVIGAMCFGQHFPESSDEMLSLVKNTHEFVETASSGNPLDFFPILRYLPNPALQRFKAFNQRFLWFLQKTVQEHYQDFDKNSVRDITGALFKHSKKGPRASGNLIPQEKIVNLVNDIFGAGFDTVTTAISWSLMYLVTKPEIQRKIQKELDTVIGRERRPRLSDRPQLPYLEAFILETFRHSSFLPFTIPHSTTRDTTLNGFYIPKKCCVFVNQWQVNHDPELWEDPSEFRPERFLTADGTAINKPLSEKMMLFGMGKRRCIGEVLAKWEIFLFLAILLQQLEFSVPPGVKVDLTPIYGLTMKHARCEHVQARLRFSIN
Experimental: (§2) CYP (Cytochrome P450) enzymes are the major drug metabolizing enzymes present in the liver. The inhibition of CYP enzyme activity (IC50) for each of CYP1A2, CYP2C19, CYP2C9, CYP2D6, CYP3A4(BFC) and CYP3A4(BQ) is determined for compounds, where inhibition of metabolism of a known substrate leads to a decrease in the fluorescence of the metabolized product. The fluorescence of the product is monitored as a function of compound concentration. Compounds are dissolved in dimethyl sulfoxide to a concentration of 100 mM. These are diluted 1 μL into 82 μL of acetonitrile. An 11 μL aliquot of this solution is then added to 204 μL of cofactor mix (1.3% NADPH Regeneration system Solution A, 1.04% NADPH Regeneration system Solution B from BD Biosciences, 5% acetonitrile and 0.05% dimethyl sulfoxide). These are then serially diluted 160 μL to 160 μL co-factor mix for a total of 10 points. A 10 μL aliquot of this final mixture is dispensed into 384 well assay plates and incubated for 10 minutes at 37° C. Enzyme and substrate mix (10 μL; 0.5 pmol CYP1A2/5 μM CEC; 1.0 pmol CYP2C9/75 μM MFC; 0.5 pmol CYP2C19/25 μM CEC; 1.5 pmol CYP2D6/1.5 μM AMMC; 1.0 pmol CYP3A4/50 μM BFC; or 1.0 pmol CYP3A4/40 μM BQ) is added to these assay plates. […] (CYP1A2-15 min; CYP2C9-45 min; CYP2C19, 2D6 and 3A4-30 min) and read in a Tecan Safire 2 plate reader (CYP1A2, 2C19 and 3A4 409 ex/460 em; CYP2C9 and 2D6 409 ex/530 em). […]

[13] = target: T5, CYP2C19 (Homo sapiens, UniProt P33261); assay: CYP inhibition fluorescence assay, CYP2C19; assay type: in vitro ADME; conditions: substrate CEC; read-out: Cyp IC50 2C19
T5 construct: purchased BD Biosciences
Experimental: as §2

[14] = target: T6, CYP2C9 (Homo sapiens, UniProt P11712); assay: CYP inhibition fluorescence assay, CYP2C9; assay type: in vitro ADME; conditions: substrate MFC; read-out: Cyp IC50 2C9
T6 construct: purchased BD Biosciences
Experimental: as §2

[15] = target: T7, CYP2D6 (Homo sapiens, UniProt P10635); assay: CYP inhibition fluorescence assay, CYP2D6; assay type: in vitro ADME; conditions: substrate AMMC; read-out: Cyp IC50 2D6
T7 construct: purchased BD Biosciences
T7 sequence (P10635 whole entry): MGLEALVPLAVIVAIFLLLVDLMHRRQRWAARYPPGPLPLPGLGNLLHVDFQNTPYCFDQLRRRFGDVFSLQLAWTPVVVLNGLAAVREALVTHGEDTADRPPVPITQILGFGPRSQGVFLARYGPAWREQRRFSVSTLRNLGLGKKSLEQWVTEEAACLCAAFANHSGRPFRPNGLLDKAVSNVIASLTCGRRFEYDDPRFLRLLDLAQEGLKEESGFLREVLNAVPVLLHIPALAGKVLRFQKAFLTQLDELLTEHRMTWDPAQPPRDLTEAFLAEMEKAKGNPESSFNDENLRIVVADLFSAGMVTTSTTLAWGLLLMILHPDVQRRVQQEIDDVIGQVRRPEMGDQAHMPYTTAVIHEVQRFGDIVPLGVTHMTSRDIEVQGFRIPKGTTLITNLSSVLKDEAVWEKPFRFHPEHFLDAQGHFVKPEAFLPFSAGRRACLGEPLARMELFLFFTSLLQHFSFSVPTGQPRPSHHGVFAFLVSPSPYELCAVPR
Experimental: as §2

[16] = target: T8, CYP3A4(BFC) (Homo sapiens, UniProt P08684); assay: CYP inhibition fluorescence assay, CYP3A4 with BFC substrate; assay type: in vitro ADME; conditions: read-out: Cyp IC50 3A4(BFC)
T8 construct: purchased BD Biosciences
T8 sequence (P08684 whole entry): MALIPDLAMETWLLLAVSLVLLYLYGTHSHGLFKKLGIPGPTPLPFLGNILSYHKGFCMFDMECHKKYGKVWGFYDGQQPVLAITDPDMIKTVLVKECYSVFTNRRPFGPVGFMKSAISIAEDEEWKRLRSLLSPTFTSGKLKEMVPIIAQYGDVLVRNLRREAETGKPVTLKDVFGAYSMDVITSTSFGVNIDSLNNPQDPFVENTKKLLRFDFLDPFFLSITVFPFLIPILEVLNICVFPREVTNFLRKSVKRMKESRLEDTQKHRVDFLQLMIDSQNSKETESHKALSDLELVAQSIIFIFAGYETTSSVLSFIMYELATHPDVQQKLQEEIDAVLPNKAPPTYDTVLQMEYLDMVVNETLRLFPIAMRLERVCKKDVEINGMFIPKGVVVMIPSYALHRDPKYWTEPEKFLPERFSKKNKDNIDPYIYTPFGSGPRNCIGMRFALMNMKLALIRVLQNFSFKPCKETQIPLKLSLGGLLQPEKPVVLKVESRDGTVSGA
Experimental: as §2

[17] = target: T9, CYP3A4(BQ) (Homo sapiens, UniProt P08684); assay: CYP inhibition fluorescence assay, CYP3A4 with BQ substrate; assay type: in vitro ADME; conditions: read-out: Cyp IC50 3A4(BQ)
T9 construct: purchased BD Biosciences
T9 sequence (P08684 whole entry): as above
Experimental: as §2

[18] = pKa of weakly basic and weakly acidic centers; assay type: physicochemical; conditions: approximate
[19] = pH 1.4 (Simulated Gastric Fluid)
[20] = pH 4.5 (Simulated Intestinal fluid)
[21] = pH 6.8 (Simulated Intestinal fluid)
[22] = read-out: pKa of N-7 of the pyrrolo[2,3-b]pyridine portion (weakly basic)
[23] = read-out: pKa of the sulfonamide nitrogen (weakly acidic)

IC50 [1] | IC50 [2] | IC50 [3] | IC50 [5] | IC50 [6] | IC50 [7] | IC50 [8] | IC50 [10] | IC50 [12] | IC50 [13] | IC50 [14] | IC50 [15] | IC50 [16] | IC50 [17] | pKa [18, 22] | pKa [18, 23] | Compound | turbidity threshold (L, M, H) [11, 19] | turbidity threshold (L, M, H) [11, 20] | turbidity threshold (L, M, H) [11, 21] | turbidity threshold (L, M, H) ([11]; pH 7.4 (Hepes Buffer)) | further results
< 0.1 µM | < 0.1 µM | < 1 µM | 1 to 10 µM | 1 to 10 µM | > 10 µM | > 10 µM | > 10 µM | > 10 µM | > 10 µM | > 10 µM | > 10 µM | > 10 µM | > 10 µM | 4 to 5 | ~7 | N#Cc1ccnc2[nH]cc(C(=O)c3c(F)ccc(NS(=O)(=O)c4ccc(C(F)(F)F)cc4)c3F)c12 [Compound P-0001, N-[3-(4-cyano-1H-pyrrolo[2,3-b]pyridine-3-carbonyl)-2,4-difluoro-phenyl]-4-trifluoromethyl-benzenesulfonamide] | L (low solubility if the threshold concentration is <31.3 μM) | L (low solubility if the threshold concentration is <31.3 μM) | L (low solubility if the threshold concentration is <31.3 μM) | M (moderate solubility if the threshold concentration is 31.3 μM to 250 μM) | IC50 [4]: 1 to 10 µM; IC50 [9]: > 10 µM
< 0.1 µM | < 0.1 µM | < 1 µM | > 10 µM | ~1 µM | > 10 µM | > 10 µM | ~1 µM | > 10 µM | > 10 µM | < 5 µM | > 10 µM | 5 to 10 µM | > 10 µM | 4 to 5 | ~7 | C#Cc1ccnc2[nH]cc(C(=O)c3c(F)ccc(NS(=O)(=O)c4ccc(C(F)(F)F)cc4)c3F)c12 [Compound P-0002, N-[3-(4-ethynyl-1H-pyrrolo[2,3-b]pyridine-3-carbonyl)-2,4-difluoro-phenyl]-4-trifluoromethyl-benzenesulfonamide] | L (low solubility if the threshold concentration is <31.3 μM) | L (low solubility if the threshold concentration is <31.3 μM) | M (moderate solubility if the threshold concentration is 31.3 μM to 250 μM) | M (moderate solubility if the threshold concentration is 31.3 μM to 250 μM) | –

From patent publication US8129404B2, “Compounds and uses thereof” (Plexxikon Inc., priority 2009, dated 2012)
